Columns and labels:
[1] = molecular target: Gamma-aminobutyric acid receptor subunit alpha-1 (Rattus norvegicus, UniProt P62813); assay type: functional
[2] = molecular target: T1, 5-hydroxytryptamine receptor 1A (Homo sapiens, UniProt P08908); assay type: functional, cell-based
T1 sequence (P08908 whole entry): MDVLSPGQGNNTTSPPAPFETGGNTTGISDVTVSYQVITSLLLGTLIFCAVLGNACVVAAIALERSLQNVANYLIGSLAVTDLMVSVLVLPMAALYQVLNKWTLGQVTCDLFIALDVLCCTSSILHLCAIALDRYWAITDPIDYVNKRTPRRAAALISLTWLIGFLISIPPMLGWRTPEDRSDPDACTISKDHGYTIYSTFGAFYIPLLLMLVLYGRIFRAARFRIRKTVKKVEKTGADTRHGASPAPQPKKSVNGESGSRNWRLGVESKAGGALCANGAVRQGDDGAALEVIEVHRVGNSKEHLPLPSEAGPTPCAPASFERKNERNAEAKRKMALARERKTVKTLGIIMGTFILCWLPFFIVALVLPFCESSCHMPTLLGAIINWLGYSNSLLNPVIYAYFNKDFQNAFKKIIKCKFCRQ

[3] = molecular target: 3',5'-cyclic-AMP phosphodiesterase 4A (Homo sapiens, UniProt P27815); assay type: functional
3',5'-cyclic-AMP phosphodiesterase 4A, sequence (P27815 whole entry): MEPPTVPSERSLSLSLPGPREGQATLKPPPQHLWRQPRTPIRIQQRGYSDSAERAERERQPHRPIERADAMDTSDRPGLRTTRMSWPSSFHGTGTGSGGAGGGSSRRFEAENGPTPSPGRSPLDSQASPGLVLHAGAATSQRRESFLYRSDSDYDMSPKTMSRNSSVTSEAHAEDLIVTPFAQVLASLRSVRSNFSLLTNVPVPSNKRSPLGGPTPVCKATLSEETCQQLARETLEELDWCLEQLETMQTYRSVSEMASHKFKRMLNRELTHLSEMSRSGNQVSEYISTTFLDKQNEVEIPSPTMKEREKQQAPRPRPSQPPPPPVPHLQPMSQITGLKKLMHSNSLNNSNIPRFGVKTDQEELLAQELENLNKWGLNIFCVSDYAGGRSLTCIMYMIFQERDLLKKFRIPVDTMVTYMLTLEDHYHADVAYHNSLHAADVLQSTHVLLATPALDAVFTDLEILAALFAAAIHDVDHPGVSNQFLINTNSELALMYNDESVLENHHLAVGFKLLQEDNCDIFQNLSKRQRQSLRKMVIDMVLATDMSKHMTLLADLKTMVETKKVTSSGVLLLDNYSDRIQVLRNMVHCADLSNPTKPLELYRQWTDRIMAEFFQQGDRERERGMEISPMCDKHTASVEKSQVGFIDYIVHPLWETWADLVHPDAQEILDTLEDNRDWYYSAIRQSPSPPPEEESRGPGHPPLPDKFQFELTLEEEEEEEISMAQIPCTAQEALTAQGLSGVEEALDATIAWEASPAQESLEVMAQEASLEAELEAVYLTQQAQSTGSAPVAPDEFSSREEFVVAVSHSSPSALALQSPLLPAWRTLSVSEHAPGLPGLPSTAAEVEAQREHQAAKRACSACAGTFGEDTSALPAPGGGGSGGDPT

Acetylcholinesterase = Acetylcholinesterase (Homo sapiens, UniProt P22303); assay type: functional
Acetylcholinesterase, sequence (P22303 whole entry): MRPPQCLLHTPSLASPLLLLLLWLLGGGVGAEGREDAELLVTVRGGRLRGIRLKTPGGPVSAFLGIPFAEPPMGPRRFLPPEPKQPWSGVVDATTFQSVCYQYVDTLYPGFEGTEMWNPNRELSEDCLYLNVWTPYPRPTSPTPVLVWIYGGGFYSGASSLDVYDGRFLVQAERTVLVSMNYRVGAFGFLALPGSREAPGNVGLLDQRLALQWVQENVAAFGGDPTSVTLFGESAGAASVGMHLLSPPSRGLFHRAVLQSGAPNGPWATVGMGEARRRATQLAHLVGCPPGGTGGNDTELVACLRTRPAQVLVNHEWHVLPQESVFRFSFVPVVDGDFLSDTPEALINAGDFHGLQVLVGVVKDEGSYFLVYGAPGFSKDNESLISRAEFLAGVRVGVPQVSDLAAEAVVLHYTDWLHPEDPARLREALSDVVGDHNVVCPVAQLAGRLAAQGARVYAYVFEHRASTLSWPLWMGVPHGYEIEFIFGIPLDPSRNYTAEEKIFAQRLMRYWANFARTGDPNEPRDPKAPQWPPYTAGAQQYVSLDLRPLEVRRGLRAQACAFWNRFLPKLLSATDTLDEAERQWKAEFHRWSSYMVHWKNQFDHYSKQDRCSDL

[4] = molecular target: Beta-2 adrenergic receptor (Homo sapiens, UniProt P07550)
Beta-2 adrenergic receptor, sequence (P07550 whole entry): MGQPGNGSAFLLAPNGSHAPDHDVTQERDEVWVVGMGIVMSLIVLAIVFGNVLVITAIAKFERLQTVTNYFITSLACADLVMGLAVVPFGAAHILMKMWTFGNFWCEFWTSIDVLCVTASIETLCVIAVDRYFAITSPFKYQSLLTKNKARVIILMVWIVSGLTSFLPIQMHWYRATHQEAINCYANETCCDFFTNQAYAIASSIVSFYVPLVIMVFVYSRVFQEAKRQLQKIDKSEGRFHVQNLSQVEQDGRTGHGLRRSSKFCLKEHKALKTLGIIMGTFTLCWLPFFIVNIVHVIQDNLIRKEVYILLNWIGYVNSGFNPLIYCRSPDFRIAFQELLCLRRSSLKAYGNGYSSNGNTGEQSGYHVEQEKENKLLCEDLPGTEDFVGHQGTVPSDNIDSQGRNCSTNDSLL

[5] = molecular target: 5-hydroxytryptamine receptor 2B (Homo sapiens, UniProt P41595); assay type: functional, cell-based
5-hydroxytryptamine receptor 2B, sequence (P41595 whole entry): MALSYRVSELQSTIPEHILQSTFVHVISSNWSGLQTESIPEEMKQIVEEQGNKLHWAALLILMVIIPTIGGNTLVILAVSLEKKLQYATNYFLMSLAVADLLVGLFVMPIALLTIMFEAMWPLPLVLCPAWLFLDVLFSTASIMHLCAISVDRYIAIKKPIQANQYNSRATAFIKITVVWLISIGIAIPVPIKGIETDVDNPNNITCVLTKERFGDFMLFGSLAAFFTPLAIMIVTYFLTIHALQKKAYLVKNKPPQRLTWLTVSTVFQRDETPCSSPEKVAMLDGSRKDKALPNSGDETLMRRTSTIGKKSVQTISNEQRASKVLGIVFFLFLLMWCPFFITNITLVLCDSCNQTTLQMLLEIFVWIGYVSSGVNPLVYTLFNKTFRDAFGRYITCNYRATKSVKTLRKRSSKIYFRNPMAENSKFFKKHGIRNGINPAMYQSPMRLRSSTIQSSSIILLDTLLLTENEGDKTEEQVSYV

[6] = molecular target: T1, 5-hydroxytryptamine receptor 1A
[7] = molecular target: T2, Alpha-1A adrenergic receptor (Homo sapiens, UniProt P35348)
T2 sequence (P35348 whole entry): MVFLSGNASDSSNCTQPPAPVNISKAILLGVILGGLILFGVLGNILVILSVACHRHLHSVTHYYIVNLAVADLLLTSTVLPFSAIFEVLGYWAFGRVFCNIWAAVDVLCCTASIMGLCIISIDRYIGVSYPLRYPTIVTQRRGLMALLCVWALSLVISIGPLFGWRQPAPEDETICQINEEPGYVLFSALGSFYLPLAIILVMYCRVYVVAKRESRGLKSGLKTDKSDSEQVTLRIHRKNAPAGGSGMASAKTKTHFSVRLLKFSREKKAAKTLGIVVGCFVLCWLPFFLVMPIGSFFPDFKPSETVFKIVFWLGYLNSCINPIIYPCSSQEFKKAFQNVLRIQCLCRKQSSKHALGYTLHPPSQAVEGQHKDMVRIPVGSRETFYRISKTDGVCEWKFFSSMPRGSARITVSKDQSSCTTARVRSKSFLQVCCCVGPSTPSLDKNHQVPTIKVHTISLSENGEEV

[8] = molecular target: T3, Muscarinic acetylcholine receptor M2 (Homo sapiens, UniProt P08172)
T3 sequence (P08172 whole entry): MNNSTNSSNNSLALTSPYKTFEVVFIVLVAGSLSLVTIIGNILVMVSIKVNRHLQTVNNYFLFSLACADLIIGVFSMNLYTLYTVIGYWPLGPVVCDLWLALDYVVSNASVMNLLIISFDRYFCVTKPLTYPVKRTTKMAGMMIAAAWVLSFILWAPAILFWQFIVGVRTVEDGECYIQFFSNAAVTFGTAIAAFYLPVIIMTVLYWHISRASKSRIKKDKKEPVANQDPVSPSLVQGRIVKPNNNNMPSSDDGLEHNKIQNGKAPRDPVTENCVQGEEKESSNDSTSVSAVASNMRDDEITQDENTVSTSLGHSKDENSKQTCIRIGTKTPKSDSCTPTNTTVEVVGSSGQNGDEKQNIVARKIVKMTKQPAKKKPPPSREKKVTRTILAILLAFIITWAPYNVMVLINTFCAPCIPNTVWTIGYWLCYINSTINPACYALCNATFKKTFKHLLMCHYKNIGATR

[9] = molecular target: T4, Prostaglandin G/H synthase 1 (Homo sapiens, UniProt P23219); assay type: functional
T4 sequence (P23219 whole entry): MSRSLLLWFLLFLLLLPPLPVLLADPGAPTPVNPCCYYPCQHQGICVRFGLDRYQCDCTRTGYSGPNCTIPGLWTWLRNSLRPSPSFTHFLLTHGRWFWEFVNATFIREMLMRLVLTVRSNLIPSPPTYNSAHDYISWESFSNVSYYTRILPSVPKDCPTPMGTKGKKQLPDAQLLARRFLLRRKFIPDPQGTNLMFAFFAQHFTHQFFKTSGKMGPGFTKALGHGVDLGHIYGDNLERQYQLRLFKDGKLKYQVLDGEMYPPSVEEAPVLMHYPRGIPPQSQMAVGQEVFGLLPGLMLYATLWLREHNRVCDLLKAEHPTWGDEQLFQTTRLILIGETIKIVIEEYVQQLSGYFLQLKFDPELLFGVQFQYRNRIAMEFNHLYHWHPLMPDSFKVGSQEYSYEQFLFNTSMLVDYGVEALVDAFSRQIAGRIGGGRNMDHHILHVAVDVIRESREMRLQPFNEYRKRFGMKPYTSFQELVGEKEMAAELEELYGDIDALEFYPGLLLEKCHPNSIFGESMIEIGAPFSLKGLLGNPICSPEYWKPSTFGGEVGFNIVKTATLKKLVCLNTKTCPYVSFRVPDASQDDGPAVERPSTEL

[10] = molecular target: T2, Alpha-1A adrenergic receptor; assay type: functional, cell-based
[11] = molecular target: T4, Prostaglandin G/H synthase 1; assay type: functional; remark: listed apart in the source
Note: assay procedure not described here.

Gamma-aminobutyric acid receptor subunit alpha-1, sequence (P62813 whole entry): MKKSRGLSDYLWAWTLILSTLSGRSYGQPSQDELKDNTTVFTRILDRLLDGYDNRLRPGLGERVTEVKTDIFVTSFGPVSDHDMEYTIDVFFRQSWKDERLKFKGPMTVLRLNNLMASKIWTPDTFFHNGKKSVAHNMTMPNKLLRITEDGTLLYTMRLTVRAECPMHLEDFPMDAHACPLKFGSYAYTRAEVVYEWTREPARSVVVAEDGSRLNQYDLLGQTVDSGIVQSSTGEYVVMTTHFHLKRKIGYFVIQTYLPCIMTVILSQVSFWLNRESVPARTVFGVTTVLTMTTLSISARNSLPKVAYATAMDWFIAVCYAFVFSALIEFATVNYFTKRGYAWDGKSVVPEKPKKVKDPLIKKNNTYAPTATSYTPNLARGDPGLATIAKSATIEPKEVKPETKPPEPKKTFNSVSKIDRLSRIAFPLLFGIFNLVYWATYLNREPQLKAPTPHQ

| Compound | AC50 [1] [µM] | AC50 [2] [µM] | AC50 [3] [µM] | AC50 (Acetylcholinesterase) [µM] | AC50 [4] [µM] | AC50 [5] [µM] | AC50 [6] [µM] | AC50 [7] [µM] | AC50 [8] [µM] | AC50 [9] [µM] | AC50 [10] [µM] | AC50 [11] [µM] |
| --- | --- | --- | --- | --- | --- | --- | --- | --- | --- | --- | --- | --- |
| CC(C(=O)O)c1ccc(-c2ccccc2)c(F)c1 (stereo unspecified) [FLURBIPROFEN] | > 10 | > 10 | > 30 | > 30 | > 10 | > 10 | > 30 | > 10 | > 30 | – | – | – |
| CCC(=O)O[C@]1(C(=O)SCF)[C@H](C)C[C@H]2[C@@H]3C[C@H](F)C4=CC(=O)C=C[C@]4(C)[C@@]3(F)[C@@H](O)C[C@@]21C [FLUTICASONE PROPIONATE] | > 30 | > 10 | > 30 | > 30 | > 30 | > 30 | > 30 | > 10 | > 30 | > 30 | > 30 | > 30 |

Reference: ChEMBL document CHEMBL5291721, “A preclinical secondary pharmacology resource illuminates target-adverse drug reaction associations of marketed drugs” (Nat Commun, 2023)
